Here are results for 1 compound from paper PMC9820311, “Characterization of a Novel Amphiphilic Cationic Chlorin Photosensitizer for Photodynamic Applications” (International Journal of Molecular Sciences, 2022).

The target of this experiment is T1, bovine serum albumin (BSA) (Bos taurus, UniProt P02769).
T1 construct: gene ALB
Put plainly: BSA intrinsic fluorescence quenching titration (Stern-Volmer; λex = […] nm, […] BSA), supported by chlorin fluorescence increase and DLS. Format: binding. The conditions noted are these: read-out: BSA intrinsic fluorescence quenching titration (Stern-Volmer); λex = 290 nm, 5 μM (converted).

T1 sequence (P02769 25-607): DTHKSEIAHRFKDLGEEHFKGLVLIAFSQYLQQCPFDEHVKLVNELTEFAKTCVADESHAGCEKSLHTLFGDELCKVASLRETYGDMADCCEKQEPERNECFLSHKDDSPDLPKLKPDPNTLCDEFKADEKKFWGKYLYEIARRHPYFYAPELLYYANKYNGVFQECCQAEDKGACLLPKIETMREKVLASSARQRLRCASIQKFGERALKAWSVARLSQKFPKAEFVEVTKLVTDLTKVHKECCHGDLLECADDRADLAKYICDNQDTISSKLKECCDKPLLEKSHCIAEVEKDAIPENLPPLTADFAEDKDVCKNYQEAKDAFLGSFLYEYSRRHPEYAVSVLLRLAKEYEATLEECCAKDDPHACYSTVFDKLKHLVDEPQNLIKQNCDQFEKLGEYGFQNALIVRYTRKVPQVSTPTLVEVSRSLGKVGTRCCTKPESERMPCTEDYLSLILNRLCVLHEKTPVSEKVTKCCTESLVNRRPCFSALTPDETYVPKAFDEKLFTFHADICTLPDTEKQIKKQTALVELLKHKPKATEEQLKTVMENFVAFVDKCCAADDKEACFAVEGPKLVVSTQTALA

On to `CCC1=C(C)c2cc3[nH]c(cc4nc(c(CC(=O)OC)c5[nH]c(cc1n2)c(C)c5C(=O)NC)[C@@H](CCC(=O)OC/C=C(\C)CCCC(C)CCCC(C)CCCC(C)C)[C@@H]4C)c(C)c3C(=CC[N+](C)(C)C)C[N+](C)(C)C` (mixture of isomers) [compound 1, 3(1),3(2)-bis(N,N,N-trimethylaminomethyliodide) chlorin e6 13(1)-N-methylamide-15(2)-methyl,17(3)-phytyl ester], for which the Kd is 2740 nM.
